US10914725B2, “Culture medium additive, culture medium composition, and method for culturing cells or tissue using same” (NISSAN CHEMICAL INDUSTRIES, LTD., priority 2015, dated 2021)

Columns and labels:
[1] = system: adenocarcinomic human alveolar basal epithelial cell line A549; assay: CellTiter-Glo cell survival assay of paclitaxel (Experimental Example 5); format: cell-based; settings: for IC50: Homo sapiens, A549, cell survival assay by fluorescence, read-out: paclitaxel 50% inhibitory concentration; for relative cell number (no anticancer agent = 1): 10 days
Method: As a negative control, a medium composition containing 10 (v/v) % FBS alone in DMEM (manufactured by Wako Pure Chemical Industries, Ltd.) was prepared. As a comparison control, in the same manner as in Experimental Example 3, a medium composition containing 10 (v/v) % FBS and 0.015 (w/v) % of deacylated gellan gum in DMEM (manufactured by Wako Pure Chemical Industries, Ltd.) was prepared. Paclitaxel was also added at the above-mentioned concentration to the negative control and comparison control medium compositions, A549 cells were suspended therein and the suspensions were dispensed. Successively, the plate was cultured in a standing state in a CO2 incubator (37° C., 5% CO2) for 10 days.
CellTiter-Glo Luminescent Cell Viability Assay (manufactured by Promega) (100 μL) was added to each cell culture medium of the negative control and comparison control, the mixture was stood for 10 min at room temperature, and the amount of luminescence was measured by a microplate reader (“FlexStation 3”, manufactured by Molecular Devices) and according to the protocol recommended by Promega. The amount of luminescence of the medium alone was subtracted, whereby the number of viable cells was measured. In addition, 50% inhibitory concentration (nM) of paclitaxel by the amount of luminescence was calculated with the number of viable cells when paclitaxel was not added as 0% inhibition rate.

[2] = system: adenocarcinomic human alveolar basal epithelial cell line A549; assay: High content analysis of anti-cancer agent by cell image analysis (Experimental Example 5); format: cell-based; settings: 0.03 (w/v)% low-molecular agar medium; for average cell number per sphere / number of average spheres per 10 mm^2 / projected area: 10 days
Method: By a method similar to the preparation method of medium composition in Analysis Example 1, a medium composition containing 10 (v/v) % FBS, and 0.03 (w/v) % of low-molecular agar or agar for general use in DMEM (manufactured by Wako Pure Chemical Industries, Ltd.) was prepared. Paclitaxel (manufactured by Wako Pure Chemical Industries, Ltd.) was further added to a final concentration of 0.001 μM, 0.01 μM or 0.1 μM. Successively, adenocarcinomic human alveolar basal epithelial cell line A549 (manufactured by DS PHARMA BIOMEDICAL CO., LTD.) was seeded in the above-mentioned medium composition containing low-molecular agar at 5,000 cells/mL, and dispensed to the wells of a 96 well flat bottom ultra-low attachment surface microplate (manufactured by Corning Incorporated, #3474) at 100 μL per 1 well. Successively, the plate was cultured in a standing state in a CO2 incubator (37° C., 5% CO2) for 10 days.
Then, a solution of […] of Hoechst 33342 (manufactured by Invitrogen) in DMEM (phenol red, L-glutamine free) (manufactured by Wako Pure Chemical Industries, Ltd.) was prepared, and added, at 10 μL per 1 well, to the above-mentioned culture after static culture for 10 days, and the mixture was stood in a CO2 incubator (37° C., 5% CO2) for 45 min. Successively, a solution of 20 μg/mL Propidium Iodide (manufactured by BIOMOL) in DMEM (phenol red, L-glutamine free) (manufactured by Wako Pure Chemical Industries, Ltd.) was prepared and added at 10 μL per 1 well. The plate was centrifuged at 1,500 rpm for 10 min, and high content analysis was performed by cell image analysis using a cell imaging apparatus (“ArrayScan VTI HCS Reader”, manufactured by Thermo Fisher Scientific). At that time, observation was performed with 10 fields of view per well using a ×4 objective lens, cell outline and cell nucleus were detected from Hoechst33342 fluorescence image, and dead cells were detected from propidium iodide fluorescence image. In addition, 50% inhibitory concentration (nM) of paclitaxel by high content analysis was calculated with the number of constituent cells when the anticancer agent was added at the maximum concentration as 100% inhibition rate of sphere formation.
The observed images (area per 1 field: 1 mm^2) of A549 cells cultured for 10 days in the medium composition of the present invention containing low-molecular agar, negative control and comparison control (medium composition containing deacylated gellan gum) by a cell imaging apparatus are shown in FIG. 8. In addition, number of constituent cells of A549 cell spheres (average cell number per sphere), sphere number (average sphere number per 10 mm^2), projected area of sphere (size) (μm^2), obtained from the cell imaging analysis, are shown in Table 12. As for the negative control and comparison control, the relative cell number when the amount of luminescence without addition of the anticancer agent is 1 was determined from the measurement results of the surviving cell number using the intracellular ATP as an index, and shown in Table 13. Furthermore, the 50% inhibitory concentration (nM) of paclitaxel calculated from the amount of luminescence based on intracellular ATP and high content analysis are shown in Table 14.

CC(=O)O[C@H]1C(=O)[C@@]2(C)[C@H]([C@H](OC(=O)c3ccccc3)[C@]3(O)C[C@H](OC(=O)[C@H](O)[C@@H](NC(=O)c4ccccc4)c4ccccc4)C(C)=C1C3(C)C)[C@]1(OC(C)=O)CO[C@@H]1C[C@@H]2O [paclitaxel, Paclitaxel]
IC50 ([1]; comparison control medium (0.015 (w/v)% deacylated gellan gum)): 2.9 nM | IC50 ([1]; negative control medium (DMEM, 10% FBS alone)): 4.4 nM | relative cell number (no anticancer agent = 1) ([1]; paclitaxel 0.001 μM, comparison control medium (0.015 (w/v)% deacylated gellan gum)): 0.842 | relative cell number (no anticancer agent = 1) ([1]; paclitaxel 0.001 μM, negative control medium (DMEM, 10% FBS alone)): 1.004 | relative cell number (no anticancer agent = 1) ([1]; paclitaxel 0.01 μM, comparison control medium (0.015 (w/v)% deacylated gellan gum)): 0.156 | relative cell number (no anticancer agent = 1) ([1]; paclitaxel 0.01 μM, negative control medium (DMEM, 10% FBS alone)): 0.249 | IC50 ([2]; Homo sapiens, A549, high content analysis by cell image analysis, number of constituent cells, read-out: paclitaxel 50% inhibitory concentration): 1.9 nM | average cell number per sphere ([2]; paclitaxel 0.001 μM): 5.353 | number of average spheres per 10 mm^2 ([2]; paclitaxel 0.001 μM): 39.33 | projected area ([2]; paclitaxel 0.001 μM): 1161 μm^2 | average cell number per sphere ([2]; paclitaxel 0.01 μM): 1.52 | number of average spheres per 10 mm^2 ([2]; paclitaxel 0.01 μM): 18 | projected area ([2]; paclitaxel 0.01 μM): 578 μm^2 | average cell number per sphere ([2]; paclitaxel 0.1 μM): 1.165 | number of average spheres per 10 mm^2 ([2]; paclitaxel 0.1 μM): 6.333 | projected area ([2]; paclitaxel 0.1 μM): 402 μm^2
